How the values were obtained:
[1] = target: T1, testosterone (T) production in NCI-H295R cells (Homo sapiens, UniProt P05108); experiment: H295R Steroid Biosynthesis Inhibition Assay - inhibition of testosterone (T) production in NCI-H295R cells; format: cell-based; settings: 48 h, LC-MS/MS, read-out: Inh. of T IC50
T1 construct: testosterone measured by LC-MS/MS as downstream steroid
T1 sequence (P05108 40-521): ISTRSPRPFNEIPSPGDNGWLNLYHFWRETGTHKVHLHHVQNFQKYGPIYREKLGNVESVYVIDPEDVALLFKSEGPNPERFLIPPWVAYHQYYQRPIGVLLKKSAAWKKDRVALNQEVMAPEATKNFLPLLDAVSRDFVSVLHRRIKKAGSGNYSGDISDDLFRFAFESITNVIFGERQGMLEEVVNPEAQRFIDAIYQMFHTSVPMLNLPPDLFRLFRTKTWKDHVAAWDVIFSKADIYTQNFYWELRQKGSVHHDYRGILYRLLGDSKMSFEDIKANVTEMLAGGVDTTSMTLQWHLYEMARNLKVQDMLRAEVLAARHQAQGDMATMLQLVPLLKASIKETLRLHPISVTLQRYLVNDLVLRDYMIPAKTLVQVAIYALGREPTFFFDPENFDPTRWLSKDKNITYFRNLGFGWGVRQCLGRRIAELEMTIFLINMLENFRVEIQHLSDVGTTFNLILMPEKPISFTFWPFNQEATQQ
Protocol: (§1) Steroid Biosynthesis Inhibition by test compounds in NCI-H295R cells (ATCC) was studied by measuring the cellular production of pregnenolone (P) catalyzed by CYP11A1 and the downstream steroid, testosterone (T). Cells were cultured in Dulbecco's modified eagle's medium F12 (DMEM/F12) with phenol red (Gibco, Cat. No. 11330032) supplemented with 2% UltroserG (Pall, Cat. No. 15950-017, USA), 1% ITS-Premix and 1% penicillin and streptomycin (Hyclone, Cat. No. SV30010, USA). Prior to the assay, cells were thawed and passed 4 times. The maximal passage number used for the assay was 10. For this assay, DMEM/F12 without phenol red supplemented with 10% charcoal-stripped fetal bovine serum (VivaCell, Cat. No. C3830-0500, USA) were used. In a 96-well plate, 60,000 cells/well were plated (90 μL/well) and incubated for 24 h. Test compounds, diluted in a serial dilution ranging from 1000 nM to 0.15 nM in the assay medium, were added to the plate. After 48 h of incubation, solution from each well were collected and transferred to individual 1.5 mL centrifuge tubes, and then 5 ng/mL deuterated testosterone (D3-testosterone) and 50 ng/mL deuterated pregnenolone (D4-pregnenolone) in 200 μL acetonitrile were added. After vigorously mixing for 5 min, the mixture was centrifuged at 12,700 rpm for 15 min. An aliquot of 250 μL supernatant was collected and dried under N2 stream. After addition of 150 μL Methanol:water (1:1, v/v) to the dried product, 50 μL sample of this solution was injected into the LC-MS/MS system for analysis.
(§2) The half-maximal inhibitory concentration (IC50) for steroid biosynthesis inhibition was determined by curve-fitting with the 4-variable inhibitory dose response equation using GraphPad Prism software.
(§3) Testosterone and pregnenolone were analyzed using Shimadzu LC30AD HPLC system (Shimadzu, Kyoto, Japan) coupled with AB SCIEX Qtrap 5500 triple quadrupole mass spectrometer (AB Sciex, Framingham, MA, USA) via ESI interface in the positive ionization mode. An ACQUITY UPLC BEH Shield RP18 column (1.7 μm, 2.1×50 mm, Milford, MA, USA) maintained at 40° C. was used to separate analytes and IS form the sample matrix.
(§4) The mobile phase was a mixture of 10 mM ammonium acetate in water containing 0.2% formic acid (A) and methanol containing 0.2% formic acid (B) at a flow rate of 0.6 mL/min. The gradient program was set as follows: from 0 min to 0.5 min, 60% B; from 0.5 min to 3.5 min, 90% B; from 3.5 min to 4.5 min, 90% B; from 4.51 min to 5.0 min, 60% B. The injection volume was […].
(§5) The MS/MS parameters were set as follows: ion spray voltage, 5500 V; curtain gas, 35 psi; Gas 1, 55 psi; Gas 2: 55 psi; temperature, […]. The optimized multiple reaction monitoring (MRM) fragmentation transitions and MS parameters of each analyte are summarized in Table 1.

CYP11A1 = target: T2, CYP11A1 (Homo sapiens, UniProt P05108); experiment: H295R Steroid Biosynthesis Inhibition Assay - inhibition of pregnenolone (P) production catalyzed by CYP11A1 in NCI-H295R cells; format: cell-based; settings: 48 h, LC-MS/MS, read-out: Inh. of P IC50
T2 construct: measuring the cellular production of pregnenolone (P) catalyzed by CYP11A1; host or cells: NCI-H295R
T2 sequence (P05108 40-521): T1 sequence (P05108 40-521)
Protocol: as §1, §2, §3, §4, §5

Row | SMILES | IC50 [1] [nM] | IC50 (CYP11A1) [nM]
1 | Cc1nc(C2CCN(S(C)(=O)=O)CC2)nc2ccc(CN3Cc4ccccc4C3)cc12 [Compound 83] | ≤ 40 | ≤ 40
2 | NC(=O)[C@H]1CC[C@H](c2cc3oc(CN4Cc5ccccc5C4)cc(=O)c3o2)CC1 [Compound 46] | ≤ 40 | ≤ 40
3 | CS(=O)(=O)N1CCC(c2cnc3cc(CN4Cc5ccc(F)cc5C4)ccc3n2)CC1 [Compound 87] | ≤ 40 | ≤ 40
4 | CS(=O)(=O)N1CCC(c2ccc3nc(CN4Cc5ccccc5C4)cc(=O)n3c2)CC1 [Compound 59] | ≤ 40 | ≤ 40
5 | O=S(=O)(C1CC1)N1CCC(c2cnc3cc(CN4Cc5ccccc5C4)ccc3n2)CC1 [Compound 95] | ≤ 40 | ≤ 40
6 | CC(C)NC(=O)N1CCC(c2cnc3cc(CN4Cc5ccccc5C4)ccc3n2)CC1 [Compound 117] | ≥ 101 | 40 to 100
7 | O=c1cc(CN2Cc3ccccc3C2)oc2cc([C@H]3CC[C@H](O)CC3)oc12 [Compound 29] | ≤ 40 | ≤ 40
8 | C[C@]1(O)CC[C@@H](c2cc3oc(CN4Cc5ccccc5C4)cc(=O)c3o2)CC1 [Compound 28] | ≥ 101 | ≤ 40
9 | COc1ccc2c(c1)CN(Cc1ccc3nc(C4CCN(S(C)(=O)=O)CC4)ccc3c1)C2 [Compound 73] | ≤ 40 | ≤ 40
10 | CS(=O)(=O)c1ccc(-c2cc3oc(CN4Cc5ccccc5C4)cc(=O)c3o2)cc1 [Compound 49] | ≤ 40 | ≤ 40
11 | O=C(c1nccs1)N1CCC(c2cnc3cc(CN4Cc5ccccc5C4)ccc3n2)CC1 [Compound 109] | 41 to 100 | 40 to 100
12 | Cc1oc(CN2Cc3ccccc3C2)cc(=O)c1OCC1CCN(S(C)(=O)=O)CC1 [Compound 6] | 41 to 100 | ≤ 40
13 | Cn1c(C2CCN(S(C)(=O)=O)CC2)nc2ccc(CN3Cc4ccccc4C3)cc21 [Compound 130] | ≥ 101 | ≤ 40
14 | O=c1cc(CN2Cc3ccccc3C2)oc2cc([C@H]3CC[C@@](O)(C(F)(F)F)CC3)oc12 [Compound 37] | ≤ 40 | 40 to 100
15 | CS(=O)(=O)N1CCC(N2CCc3cc(CN4Cc5ccccc5C4)ccc3C2=O)CC1 [Compound 64] | 41 to 100 | ≤ 40
16 | CS(=O)(=O)N[C@H]1CC[C@H](c2cc3oc(CN4Cc5ccccc5C4)cc(=O)c3o2)CC1 [Compound 44] | ≤ 40 | ≤ 40
17 | CC(=O)N1CCC(c2cnc3cc(CN4Cc5ccccc5C4)ccc3n2)CC1 [Compound 101] | ≥ 101 | ≥ 100
18 | CC(C)(C)NC(=O)N1CCC(c2cnc3cc(CN4Cc5ccccc5C4)ccc3n2)CC1 [Compound 119] | 41 to 100 | ≤ 40
19 | O=c1cc(CN2Cc3ccccc3C2)oc2cc(C3CC4(COC4)C3)oc12 [Compound 25] | ≤ 40 | ≤ 40
20 | Cn1ccc(C(=O)N2CCC(c3cnc4cc(CN5Cc6ccccc6C5)ccc4n3)CC2)n1 [Compound 106] | ≥ 101 | ≤ 40
21 | COc1nc(C2CCN(S(C)(=O)=O)CC2)nc2ccc(CN3Cc4ccccc4C3)cc12 [Compound 85] | ≤ 40 | ≤ 40
22 | CS(=O)(=O)N1CCC(c2ccc3cc(CN4Cc5ccc(F)cc5C4)ccc3n2)CC1 [Compound 72] | ≤ 40 | ≤ 40
23 | CS(=O)(=O)N1CCC(c2ccc3cc(CN4Cc5ccccc5C4)ccc3c2)CC1 [Compound 66] | ≤ 40 | ≤ 40
24 | CC(c1cc(=O)c2oc([C@H]3CC[C@H](O)CC3)cc2o1)N1Cc2ccccc2C1 (stereo partly shown) [Compound 31] | ≤ 40 | ≤ 40

Row | SMILES | IC50 [1] [nM] | IC50 (CYP11A1) [nM]
25 | CCOC(=O)N1CCC(c2cnc3cc(CN4Cc5ccccc5C4)ccc3n2)CC1 [Compound 111] | ≤ 40 | ≤ 40
26 | COc1ccc2c(c1)CN(Cc1cc(=O)c3oc(C4CCN(S(C)(=O)=O)CC4)cc3o1)C2 [Compound 19] | ≤ 40 | ≤ 40
27 | CS(=O)(=O)N1CCC(c2cnc3cc(CN4Cc5ccc(C(F)(F)F)cc5C4)ccc3n2)CC1 [Compound 90] | ≤ 40 | ≤ 40
28 | CS(=O)(=O)N1CCC(c2ccc3cc(CN4Cc5ccccc5C4)cnc3n2)CC1 [Compound 78] | ≤ 40 | ≤ 40
29 | CC(C)(O)[C@H]1CC[C@H](c2cc3oc(CN4Cc5ccccc5C4)cc(=O)c3o2)CC1 [Compound 32] | ≤ 40 | 40 to 100
30 | C[C@]1(O)CC[C@H](c2cc3oc(CN4Cc5ccccc5C4)cc(=O)c3o2)CC1 [Compound 27] | ≤ 40 | ≤ 40
31 | CS(=O)(=O)N1CCC2(CC1)CC(c1cc3oc(CN4Cc5ccccc5C4)cc(=O)c3o1)C2 [Compound 22] | ≤ 40 | ≤ 40
32 | O=S1(=O)CCC(c2cnc3cc(CN4Cc5ccccc5C4)ccc3n2)CC1 [Compound 124] | ≥ 101 | ≥ 100
33 | C[C@]1(c2cc3oc(CN4Cc5ccccc5C4)cc(=O)c3o2)CC[C@H](O)CC1 [Compound 41] | ≤ 40 | ≤ 40
34 | CS(=O)(=O)N1CC=C(c2ccc3nc(CN4Cc5ccccc5C4)cnc3c2)CC1 [Compound 81] | 41 to 100 | ≤ 40
35 | Cn1c(C2CCN(S(C)(=O)=O)CC2)nc2cc(CN3Cc4ccccc4C3)ccc21 [Compound 129] | ≥ 101 | ≤ 40
36 | CS(=O)(=O)N1CCC(c2ccc3cc(CN4CCn5cccc5C4)ccc3n2)CC1 [Compound 76] | ≥ 101 | 40 to 100
37 | CC(C)OC(=O)N1CCC(c2cnc3cc(CN4Cc5ccccc5C4)ccc3n2)CC1 [Compound 112] | 41 to 100 | 40 to 100
38 | CS(=O)(=O)Nc1ccc(-c2cc3oc(CN4Cc5ccccc5C4)cc(=O)c3o2)cc1 [Compound 52] | ≤ 40 | ≤ 40
39 | CS(=O)(=O)N1CCC(c2ccc3cc(CN4Cc5ccccc5C4)cnc3c2)CC1 [Compound 67] | ≤ 40 | ≤ 40
40 | Cc1nc(C2CCN(S(C)(=O)=O)CC2)nc2ccc(CN3CCn4cccc4C3)cc12 [Compound 84] | ≥ 101 | ≥ 100
41 | O=c1cc(CN2CCn3cccc3C2)oc2cc([C@H]3CC[C@H](O)CC3)oc12 [Compound 54] | 41 to 100 | ≤ 40
42 | CCCS(=O)(=O)N1CCC(c2cnc3cc(CN4Cc5ccccc5C4)ccc3n2)CC1 [Compound 92] | ≤ 40 | ≤ 40
43 | CS(=O)(=O)N1CCC(c2cc3oc(CN4Cc5ccccc5C4)cc(=O)c3o2)CC1 [Compound 14] | ≤ 40 | ≤ 40
44 | O=c1cc(CN2Cc3ccccc3C2)oc2cc([C@@H]3CCC[C@@H](O)C3)oc12 [Compound 36] | ≥ 101 | 40 to 100
45 | O=C(NC1COC1)N1CCC(c2cnc3cc(CN4Cc5ccccc5C4)ccc3n2)CC1 [Compound 118] | ≥ 101 | ≥ 100
46 | CS(=O)(=O)N1CCC(COc2ccc(C3(N4Cc5ccccc5C4)CC3)c3cccnc23)CC1 [Compound 10] | ≥ 101 | 40 to 100
47 | O=S(=O)(N1CCC(c2cnc3cc(CN4Cc5ccccc5C4)ccc3n2)CC1)C(F)(F)F [Compound 97] | ≥ 101 | 40 to 100

— patent publication US20260327234A1, “NOVEL COMPOUNDS AS CYP11A1 INHIBITORS AND METHODS OF USE THEREOF” (Shenzhen Ionova Life Science Co., Ltd., priority 2023, published 2026)
